Data: patent US10206399B2, “Herbicidal composition comprising uracil compound as active ingredient” (Dongbu Farm Hannong Co., Ltd., priority 2012, dated 2019)
Where two headings read alike, the source gives them in different places.

Experiments:
Porippa islandica = assay: Dry field farming herbicidal composition test, plant mortality; format: in vivo
Text: (§1) X is % damage by uracil compound (a) of formula 1 at the rate of application of p kg/ha; Y is % damage by conventional herbicidal compound (b) at the rate of application of q kg/ha; and E is the expected damage caused by compounds (a) and (b) at a rate of application of p and q kg/ha.
(§2) The expected activity for a given combination of two herbicides can be calculated using equation 1 above.

Lamium amplexicaule = assay: as above; format: in vivo; details: in % (unit assumed)
Text: as §1, §2

wild amaranth = assay: Nonselective composition of 1 uracil compound and 2 herbicidally active compounds, plant mortality; format: in vivo; details: Amaranthus caudatus, 480 h; 8 g ai/ha; read-out: Wild amaranth mortality (measured value)
Text: as §1, §2

Echinochloa crus [1] = details: for Echinochloa crus mortality, measured value: 20 days after treatment; for plant mortality, measured value: Echinochloa crus
Text: as §1, §2

Alopecurus aequalis = assay: Dry field farming herbicidal composition test, plant mortality; format: in vivo; details: in % (unit assumed)
Text: as §1, §2

ryegrass = assay: Nonselective composition of 1 uracil compound and 2 herbicidally active compounds, plant mortality; format: in vivo; details: 480 h; 8 g ai/ha; read-out: ryegrass mortality (measured value)
Text: as §1, §2

Ludwigia prostrate = assay: Paddy field farming herbicidal composition test, plant mortality; format: in vivo
Text: as §1, §2

Echinochloa crus [2] = assay: Dry field farming herbicidal composition test, plant mortality; format: in vivo
Text: as §1, §2

Aeschynomene indica [3] = assay: whole plant or invertebrate
Text: as §1, §2

Xanthium spinosum = assay: whole plant or invertebrate
Text: as §1, §2

rice plant = assay: Paddy field farming herbicidal composition test, plant mortality (crop)
Text: as §1, §2

Digitaria sanguinalis [4] = assay: Dry field farming herbicidal composition test, plant mortality; format: in vivo
Text: as §1, §2

Capsella bursapastoris = assay: Dry field farming herbicidal composition test, plant mortality; format: in vivo; details: in % (unit assumed)
Text: as §1, §2

wheat = assay: Dry field farming herbicidal composition test, plant mortality (crop)
Text: as §1, §2

Echinochloa crus [5] = assay: Paddy field farming herbicidal composition test, plant mortality; format: in vivo; details: Echinochloa; 5 g/ha; read-out: Echinochloa crus mortality (measured value)
Text: as §1, §2

Digitaria sanguinalis [6] = details: for Digitaria sanguinalis mortality, measured value: 20 days after treatment
Text: as §1, §2

Abutilon theophrasti [7] = assay: whole plant or invertebrate
Text: as §1, §2

Abutilon theophrasti [8] = assay: Dry field farming herbicidal composition test, plant mortality; format: in vivo; details: Abutilon theophrasti, read-out: Abutilon theophrasti mortality, measured value
Text: as §1, §2

Monochoria vaginalis = assay: Paddy field farming herbicidal composition test, plant mortality; format: in vivo; details: Pontederia vaginalis, read-out: Monochoria vaginalis mortality (measured value)
Text: as §1, §2

Aeschynomene indica [9] = assay: Dry field farming herbicidal composition test, plant mortality; format: in vivo
Text: as §1, §2

[10] = 480 h, read-out: Aeschynomene indica mortality, measured value
[11] = read-out: plant mortality, measured value, 4 g/ha
[12] = read-out: plant mortality, measured value, 8 g/ha
[13] = read-out: plant mortality, measured value, 16 g/ha
[14] = 480 h, read-out: Xanthium spinosum mortality, measured value
[15] = 480 h, read-out: Abutilon theophrasti mortality, measured value

What does the source list for COC(=O)CCNC(=O)C(C)Sc1cc(-n2c(=O)cc(C(F)(F)F)n(C)c2=O)c(F)cc1Cl (stereo not drawn) [Compound 36, 3-[{2-[2-chloro-5-(3,6-dihydro-3-methyl-2,6-dioxo-4-trifluoromethyl-1(2H)-pyrimidinyl)-4-fluorophenylthio]-1-oxopropyl}amino]propionic acid methyl ester]?
Porippa islandica mortality, measured value (Porippa islandica; 1 g/ha): 10; Porippa islandica mortality, measured value (Porippa islandica; 2 g/ha): 30; Porippa islandica mortality, measured value (Porippa islandica; 4 g/ha): 55; Lamium amplexicaule mortality, measured value (Lamium amplexicaule; 1 g/ha): 10; Lamium amplexicaule mortality, measured value (Lamium amplexicaule; 2 g/ha): 30; Lamium amplexicaule mortality, measured value (Lamium amplexicaule; 4 g/ha): 50; pest or weed control at 8 g/ha (wild amaranth): 40%; Data (measured value) Echinochloa crus (Echinochloa crus [1]; 4 g/ha): 0; Echinochloa crus mortality, measured value (Echinochloa crus [1]; 4 g/ha): 0%; plant mortality, measured value (Echinochloa crus [1]; 4 g/ha): 0; Data (measured value) Echinochloa crus (Echinochloa crus [1]; 8 g/ha): 5; Echinochloa crus mortality, measured value (Echinochloa crus [1]; 8 g/ha): 5%; plant mortality, measured value (Echinochloa crus [1]; 8 g/ha): 5; Echinochloa crus mortality, measured value (Echinochloa crus [1]; 16 g/ha): 10%; Data (measured value) Echinochloa crus (Echinochloa crus [1]; 20 g/ha): 17; Echinochloa crus mortality, measured value (Echinochloa crus [1]; 20 g/ha): 17%; Data (measured value) Echinochloa crus (Echinochloa crus [1]; 40 g/ha): 37; Echinochloa crus mortality, measured value (Echinochloa crus [1]; 40 g/ha): 37%; Data (measured value) Echinochloa crus (Echinochloa crus [1]; 80 g/ha): 61; Echinochloa crus mortality, measured value (Echinochloa crus [1]; 80 g/ha): 61%; Alopecurus aequalis mortality, measured value (Alopecurus aequalis; 1 g/ha): 0; Alopecurus aequalis mortality, measured value (Alopecurus aequalis; 2 g/ha): 0; Alopecurus aequalis mortality, measured value (Alopecurus aequalis; 4 g/ha): 10; pest or weed control at 8 g/ha (ryegrass): 30%; Ludwigia prostrate mortality (measured value) (Ludwigia prostrate; 5 g/ha): 35%; Ludwigia prostrate mortality (measured value) (Ludwigia prostrate; 10 g/ha): 55%; Echinochloa crus mortality, measured value (Echinochloa crus [2]; 4 g/ha): 5%; pest or weed control at 1 g/ha (Echinochloa crus [2]; Echinochloa, 1 g/ha, read-out: Echinochloa crus mortality, measured value): 0%; pest or weed control at 2 g/ha (Echinochloa crus [2]; Echinochloa, 2 g/ha, read-out: Echinochloa crus mortality, measured value): 0%; pest or weed control at 4 g/ha (Echinochloa crus [2]; Echinochloa, 4 g/ha, read-out: Echinochloa crus mortality, measured value): 5%; mortality at 4 g/ha (Aeschynomene indica [3]; [10]): 26%; mortality at 8 g/ha (Aeschynomene indica [3]; [10]): 52%; mortality at 16 g/ha (Aeschynomene indica [3]; [10]): 69%; mortality at 20 g/ha (Aeschynomene indica [3]; [10]): 56%; mortality at 40 g/ha (Aeschynomene indica [3]; [10]): 100%; mortality at 80 g/ha (Aeschynomene indica [3]; [10]): 100%; pest or weed control at 4 g/ha (Aeschynomene indica [3]; read-out: Data (measured value) Aeschynomene indica, 4 g/ha): 19%; pest or weed control at 8 g/ha (Aeschynomene indica [3]; read-out: Data (measured value) Aeschynomene indica, 8 g/ha): 46%; pest or weed control at 16 g/ha (Aeschynomene indica [3]; read-out: Data (measured value) Aeschynomene indica, 16 g/ha): 61%; pest or weed control at 20 g/ha (Aeschynomene indica [3]; read-out: Data (measured value) Aeschynomene indica, 20 g/ha): 56%; pest or weed control at 40 g/ha (Aeschynomene indica [3]; read-out: Data (measured value) Aeschynomene indica, 40 g/ha): 100%; pest or weed control at 80 g/ha (Aeschynomene indica [3]; read-out: Data (measured value) Aeschynomene indica, 80 g/ha): 100%; pest or weed control at 4 g/ha (Aeschynomene indica [3]; [11]): 20%; pest or weed control at 8 g/ha (Aeschynomene indica [3]; [12]): 45%; pest or weed control at 16 g/ha (Aeschynomene indica [3]; [13]): 65%; mortality at 4 g/ha (Xanthium spinosum; [14]): 21%; mortality at 8 g/ha (Xanthium spinosum; [14]): 42%; mortality at 16 g/ha (Xanthium spinosum; [14]): 56%; mortality at 20 g/ha (Xanthium spinosum; [14]): 51%; mortality at 40 g/ha (Xanthium spinosum; [14]): 90%; mortality at 80 g/ha (Xanthium spinosum; [14]): 100%; pest or weed control at 4 g/ha (Xanthium spinosum; read-out: Data (measured value) Xanthium spinosum, 4 g/ha): 24%; pest or weed control at 8 g/ha (Xanthium spinosum; read-out: Data (measured value) Xanthium spinosum, 8 g/ha): 59%; pest or weed control at 16 g/ha (Xanthium spinosum; read-out: Data (measured value) Xanthium spinosum, 16 g/ha): 79%; pest or weed control at 20 g/ha (Xanthium spinosum; read-out: Data (measured value) Xanthium spinosum, 20 g/ha): 51%; pest or weed control at 40 g/ha (Xanthium spinosum; read-out: Data (measured value) Xanthium spinosum, 40 g/ha): 90%; pest or weed control at 80 g/ha (Xanthium spinosum; read-out: Data (measured value) Xanthium spinosum, 80 g/ha): 100%; pest or weed control at 4 g/ha (Xanthium spinosum; [11]): 25%; pest or weed control at 8 g/ha (Xanthium spinosum; [12]): 50%; pest or weed control at 16 g/ha (Xanthium spinosum; [13]): 70%; Rice plant mortality (measured value) (rice plant; 5 g/ha): 0; Rice plant mortality (measured value) (rice plant; 10 g/ha): 1; Digitaria sanguinalis mortality, measured value (Digitaria sanguinalis [4]; 4 g/ha): 10%; pest or weed control at 1 g/ha (Digitaria sanguinalis [4]; Digitaria sanguinalis, 1 g/ha, read-out: Digitaria sanguinalis mortality, measured value): 0%; pest or weed control at 2 g/ha (Digitaria sanguinalis [4]; Digitaria sanguinalis, 2 g/ha, read-out: Digitaria sanguinalis mortality, measured value): 0%; pest or weed control at 4 g/ha (Digitaria sanguinalis [4]; Digitaria sanguinalis, 4 g/ha, read-out: Digitaria sanguinalis mortality, measured value): 10%; Corn mortality, measured value (corn; 1 g/ha): 0; Corn mortality, measured value (corn; 2 g/ha): 0; Corn mortality, measured value (corn; 4 g/ha): 1; Capsella bursapastoris mortality, measured value (Capsella bursapastoris; 1 g/ha): 5; Capsella bursapastoris mortality, measured value (Capsella bursapastoris; 2 g/ha): 25; Capsella bursapastoris mortality, measured value (Capsella bursapastoris; 4 g/ha): 45; Wheat mortality, measured value (wheat; 1 g/ha): 0; Wheat mortality, measured value (wheat; 2 g/ha): 0; Wheat mortality, measured value (wheat; 4 g/ha): 1; pest or weed control at 5 g/ha (Echinochloa crus [5]): 0%; Data (measured value) Digitaria sanguinalis (Digitaria sanguinalis [6]; 4 g/ha): 0; Digitaria sanguinalis mortality, measured value (Digitaria sanguinalis [6]; 4 g/ha): 0%; plant mortality, measured value (Digitaria sanguinalis [6]; 4 g/ha, Digitaria sanguinalis): 0; Digitaria sanguinalis mortality, measured value (Digitaria sanguinalis [6]; 8 g/ha): 5%; Data (measured value) Digitaria sanguinalis (Digitaria sanguinalis [6]; 16 g/ha): 15; Digitaria sanguinalis mortality, measured value (Digitaria sanguinalis [6]; 16 g/ha): 16%; Data (measured value) Digitaria sanguinalis (Digitaria sanguinalis [6]; 20 g/ha): 19; Digitaria sanguinalis mortality, measured value (Digitaria sanguinalis [6]; 20 g/ha): 19%; Data (measured value) Digitaria sanguinalis (Digitaria sanguinalis [6]; 40 g/ha): 43; Digitaria sanguinalis mortality, measured value (Digitaria sanguinalis [6]; 40 g/ha): 43%; Data (measured value) Digitaria sanguinalis (Digitaria sanguinalis [6]; 80 g/ha): 71; Digitaria sanguinalis mortality, measured value (Digitaria sanguinalis [6]; 80 g/ha): 71%; mortality at 4 g/ha (Abutilon theophrasti [7]; [15]): 11%; mortality at 8 g/ha (Abutilon theophrasti [7]; [15]): 38%; mortality at 16 g/ha (Abutilon theophrasti [7]; [15]): 51%; mortality at 20 g/ha (Abutilon theophrasti [7]; [15]): 58%; mortality at 40 g/ha (Abutilon theophrasti [7]; [15]): 100%; mortality at 80 g/ha (Abutilon theophrasti [7]; [15]): 100%; pest or weed control at 4 g/ha (Abutilon theophrasti [7]; read-out: Data (measured value) Abutilon theophrasti, 4 g/ha): 15%; pest or weed control at 8 g/ha (Abutilon theophrasti [7]; read-out: Data (measured value) Abutilon theophrasti, 8 g/ha): 35%; pest or weed control at 16 g/ha (Abutilon theophrasti [7]; read-out: Data (measured value) Abutilon theophrasti, 16 g/ha): 47%; pest or weed control at 20 g/ha (Abutilon theophrasti [7]; read-out: Data (measured value) Abutilon theophrasti, 20 g/ha): 58%; pest or weed control at 40 g/ha (Abutilon theophrasti [7]; read-out: Data (measured value) Abutilon theophrasti, 40 g/ha): 100%; pest or weed control at 80 g/ha (Abutilon theophrasti [7]; read-out: Data (measured value) Abutilon theophrasti, 80 g/ha): 100%; pest or weed control at 1 g/ha (Abutilon theophrasti [8]; 1 g/ha): 15%; pest or weed control at 2 g/ha (Abutilon theophrasti [8]; 2 g/ha): 35%; pest or weed control at 4 g/ha (Abutilon theophrasti [8]; 4 g/ha): 50%; pest or weed control at […] (Monochoria vaginalis; 2.5 g/ha): 5%; pest or weed control at 5 g/ha (Monochoria vaginalis; 5 g/ha): 30%; pest or weed control at 10 g/ha (Monochoria vaginalis; 10 g/ha): 50%; Aeschynomene indica mortality, measured value (Aeschynomene indica [9]; 1 g/ha): 10%; Aeschynomene indica mortality, measured value (Aeschynomene indica [9]; 4 g/ha): 45%; pest or weed control at 1 g/ha (Aeschynomene indica [9]; Aeschynomene indica, 1 g/ha, read-out: Aeschynomene indica mortality, measured value): 10%; pest or weed control at 2 g/ha (Aeschynomene indica [9]; Aeschynomene indica, 2 g/ha, read-out: Aeschynomene indica mortality, measured value): 25%; pest or weed control at 4 g/ha (Aeschynomene indica [9]; Aeschynomene indica, 4 g/ha, read-out: Aeschynomene indica mortality, measured value): 45%
